What was measured:
Assay type in all cases: in vivo
rice (Or) = test: Test Example 4: selectivity for a crop plant by flooded paddy field treatment; design: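 0-5 phytotoxicity grade; 5 = over 90%; 4 = 70-90%; 3 = 50-70%; 2 = 30-50%; 1 = 10-30%; 0 = under 10%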; settings: rice transplanted at second leaf stage, dose 25 gai/10a, 21st day after treatment, index per Table 44
Summary of the method: (§1)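 Water-surface application in a greenhouse pot test: 25 g active ingredient per 10 ares, given as a diluted wettable powder one day after flooding, with visual rating of herbicidal effect three weeks post-treatment.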

monochoria (Mo) [1] = test: as above; design: scale not given here; settings: monochoria, dose 25 gai/10a, 21st day after treatment, index per Table 44
Summary of the method: as §1

barnyard grass (Eo) [2] = test: as above; design: scale not given here; settings: barnyard grass, dose 25 gai/10a, 21st day after treatment, index per Table 44
Summary of the method: as §1

monochoria (Mo) [3] = test: Test Example 1: herbicidal effects by flooded paddy field treatment; design: herbicidal effects, Mo (monochoria):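 0-5 growth inhibition grade; 5 = over 90%; 4 = 70-90%; 3 = 50-70%; 2 = 30-50%; 1 = 10-30%; 0 = under 10%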; settings: dose 100 g active ingredient per 10 ares, examined on the 21st day after treatment, standards of Table 44
Summary of the method: (§2)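 Dose: 100 g active ingredient per 10 ares as a diluted wettable powder dripped onto 3 cm floodwater, one day after sowing in puddled paddy soil. Scored by a standard rating scale 21 days later following greenhouse growth.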

barnyard grass (Ec) [4] = test: Test Example 2: herbicidal effects by upland soil treatment; design: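 0-5 growth inhibition grade; 5 = over 90%; 4 = 70-90%; 3 = 50-70%; 2 = 30-50%; 1 = 10-30%; 0 = under 10%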; settings: dose 100 g active ingredient per 10 ares, examined on the 21st day after treatment
Summary of the method: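 Pre-emergence test: barnyard grass and green foxtail sown in upland soil, then soil surface sprayed with wettable-powder formulation at 100 g active ingredient per 10 ares (100 l per 10 ares). Grown in greenhouse; herbicidal effect scored on a rating scale 21 days after treatment.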

barnyard grass (Eo) [5] = test: Test Example 1: herbicidal effects by flooded paddy field treatment; design: herbicidal effects, Eo (barnyard grass):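 0-5 growth inhibition grade; 5 = over 90%; 4 = 70-90%; 3 = 50-70%; 2 = 30-50%; 1 = 10-30%; 0 = under 10%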; settings: dose 100 g active ingredient per 10 ares, examined on the 21st day after treatment, standards of Table 44
Summary of the method: as §2

barnyard grass (Ec) [6] = test: Test Example 3: herbicidal effects by foliage treatment in upland field; design: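 0-5 growth inhibition grade; 5 = over 90%; 4 = 70-90%; 3 = 50-70%; 2 = 30-50%; 1 = 10-30%; 0 = under 10%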; settings: dose 100 g active ingredient per 10 ares, examined on the 14th day after treatment
Summary of the method: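 Barnyard grass and green foxtail were grown in upland soil for 2 weeks in a greenhouse. A water-diluted wettable powder was sprayed over the foliage at 100 l per 10 ares, giving 100 g active ingredient per 10 ares. Herbicidal effect was scored on day 14 after treatment.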

| Compound | Or (herbicidal effect index on crop) (rice (Or)) | Mo (herbicidal effect index) (monochoria (Mo) [1]) | Eo (herbicidal effect index) (barnyard grass (Eo) [2]) | herbicidal effects, Mo (monochoria) (monochoria (Mo) [3]) | Ec (herbicidal effects, index) (barnyard grass (Ec) [4]) | herbicidal effects, Eo (barnyard grass) (barnyard grass (Eo) [5]) | Ec (herbicidal effects, index) (barnyard grass (Ec) [6]) |
| --- | --- | --- | --- | --- | --- | --- | --- |
| CCOC(OCC)C(c1cncnc1C(C)C)N(C)C(=O)Cc1ccccc1 (racemic) [1-454] | 1 | 5 | 5 | 5 | 4 | 5 | 4 |
| CC(=O)c1ncncc1C(C(C)C)N(C)C(=O)Cc1ccc(Cl)cc1 (racemic) [1-528] | 1 | 5 | 5 | 5 | 5 | 5 | 4 |
| CN(C(=O)Cc1ccc(F)cc1)C(c1ccsc1)c1cncnc1C(F)(F)F (racemic) [1-441] | 1 | 5 | 5 | 5 | 5 | 5 | 4 |
| CCCc1ncncc1C(CCC)N(C)C(=O)Cc1ccccc1 (racemic) [1-492] | 0 | 5 | 5 | 5 | 5 | 5 | 5 |
| C#CCN(C(=O)Cc1ccc(C)cc1)C(CCC)c1cncnc1CC (racemic) [1-609] | 1 | 5 | 5 | 5 | 5 | 5 | 4 |
| CC(=O)c1ncncc1C(C(C)C)N(C)C(=O)C(C)c1ccc(Cl)cc1 (mixture of isomers) [1-530] | 1 | 5 | 5 | 5 | 5 | 5 | 4 |
| CCC(c1cncnc1C(C)(C)C)N(C)C(=O)Cc1ccc(Cl)cc1 (racemic) [1-572] | 1 | 5 | 5 | 5 | 5 | 5 | 4 |
| COC(C)(OC)c1ncncc1C(C(C)C)N(C)C(=O)Cc1ccc(Cl)cc1 (racemic) [1-517] | 1 | 5 | 5 | 5 | 5 | 5 | 4 |
| C#CCN(C(=O)Cc1ccc(Cl)s1)C(c1cncnc1C(F)(F)F)C(C)C (racemic) [2-74] | 1 | 5 | 5 | 5 | 5 | 5 | 4 |
| CCCC(c1cncnc1C(C)C)N(C)C(=O)Cc1ccc(C)cc1 (racemic) [1-452] | 0 | 5 | 5 | 5 | 5 | 5 | 4 |
| CCc1ncncc1C(C(C)C)N(C)C(=O)N(C)c1ccc(C)cc1 (racemic) [1-541] | 1 | 5 | 5 | 5 | 5 | 5 | 4 |
| CC(C)C(c1cncnc1C(F)(F)F)N(CC#N)C(=O)Cc1ccc(F)cc1 (racemic) [1-579] | 1 | 5 | 5 | 5 | 5 | 5 | 4 |
| CC(C)c1ncncc1C(C(C)C)N(C)C(=O)Cc1ccc(Cl)s1 (racemic) [2-71] | 1 | 5 | 5 | 5 | 5 | 5 | 5 |
| Cc1ccc(CC(=O)N(C)C(c2cncnc2C(F)(F)F)C2(C)CC2)cc1 (racemic) [1-412] | 1 | 5 | 5 | 5 | 5 | 5 | 4 |
| CCC(C)C(c1cncnc1C(F)(F)F)N(C)C(=O)Cc1ccc(Cl)cc1F (mixture of isomers) [Compound 1-251] | 1 | 5 | 5 | 5 | 5 | 5 | 4 |
| COc1ccccc1C(c1cncnc1C(F)(F)F)N(C)C(=O)Cc1ccc(Cl)cc1 (racemic) [1-490] | 0 | 5 | 5 | 5 | 5 | 5 | 4 |
| COCC(c1cncnc1C(C)C)N(C)C(=O)Cc1ccc(Cl)cc1 (racemic) [1-584] | 1 | 5 | 5 | 5 | 5 | 5 | 4 |
| CC(C)C(c1cncnc1C(F)(F)F)N(C)C(=O)NCc1ccccc1 (racemic) [1-461] | 1 | 5 | 5 | 5 | 5 | 5 | 4 |
| COc1ncncc1C(C(C)C)N(C)C(=O)Cc1ccc(C)cc1 (racemic) [1-404] | 1 | 5 | 5 | 5 | 5 | 5 | 5 |
| CCCc1ncncc1C(CCC)N(C)C(=O)Cc1ccc(Cl)cc1 (racemic) [1-494] | 1 | 5 | 5 | 5 | 5 | 5 | 5 |
| CON=Cc1ncncc1C(C(C)C)N(C)C(=O)Cc1ccccc1 (racemic) [1-496] | 1 | 5 | 5 | 5 | 5 | 5 | 4 |
| C#CCN(C(=O)Cc1cccc(F)c1)C(c1cncnc1C(F)(F)F)C(C)C (racemic) [1-569] | 1 | 5 | 5 | 5 | 5 | 5 | 5 |
| CON(C(=O)Cc1ccc(F)cc1)C(c1cncnc1C(F)(F)F)C(C)C (racemic) [1-333] | 1 | 5 | 5 | 5 | 5 | 5 | 4 |
| CC(C)C(c1cncnc1C(F)(F)F)N(C)C(=O)Cc1ccc(F)c(F)c1F (racemic) [1-417] | 1 | 5 | 5 | 5 | 5 | 5 | 4 |
